{"source": "patent US20240173273A1", "about": "(priority 2021, published 2024)", "assay_type_in_all_cases": "cell-based", "key": {"[1]": {"tested_on": "inflammatory response induced by SARS-COV-2", "assay": "Inflammatory and immune-sensing gene expression in infected Calu-3a cells", "details": "data not shown"}, "SARS-COV-2 [2]": {"tested_on": "SARS-COV-2"}, "SARS-COV-2 [3]": {"tested_on": "SARS-COV-2", "assay": "microbe, parasite or virus in culture"}, "SARS-COV-2 [4]": {"tested_on": "SARS-COV-2", "remark": "listed apart in the source"}, "[5]": {"tested_on": "HECT E3 ligases, ACE2, TMPRSS2", "assay": "Expression of HECT E3 ligases, ACE2 and TMPRSS2 in Vero E6 and Calu-3a cells (RT-qPCR)"}}}
{"smiles": "CC(C)(CO)[C@@H](O)C(=O)NCCC(=O)NCCSSCCNC(=O)CCNC(=O)[C@H](O)C(C)(C)CO", "note": "[pantethine, (2R,2′ R)—N,N′-(3,12-Dioxo-7,8-dithia-4,11-diazatetradecane-1,14-diyl)bis(2,4-dihydroxy-3,3-dimethylbutanamide)]", "values": [{"measurement": "inflammatory response induced by SARS-COV-2", "setting": "[1]", "result": "reduced"}, {"measurement": "infection of Calu-3a cells by SARS-COV-2", "setting": "SARS-COV-2 [2]", "result": "reduced significantly and dose dependently"}, {"measurement": "infection of Vero E6 cells by SARS-COV-2", "setting": "SARS-COV-2 [3]", "result": "reduced significantly and dose dependently"}, {"measurement": "inhibition at 100 µM", "setting": "SARS-COV-2 [3]; Severe acute respiratory syndrome coronavirus 2, Vero C1008, 72 h, 100 μM, read-out: inhibition of the replication of SARS-COV-2 (Spike protein staining)", "result": "~76", "unit": "%"}, {"measurement": "inhibition at 1000 µM", "setting": "SARS-COV-2 [3]; Severe acute respiratory syndrome coronavirus 2, Vero C1008, 72 h, 1000 μM, read-out: inhibition of the replication of SARS-COV-2 (Spike protein staining)", "result": "~98", "unit": "%"}, {"measurement": "expression of the viral Spike and Nucleocapsid proteins within infected cells", "setting": "SARS-COV-2 [4]", "result": "reduce significantly"}, {"measurement": "ACE2 and TMPRSS2 expression", "setting": "[5]", "result": "no significant effect"}, {"measurement": "HECT E3 ligases expression", "setting": "[5]", "result": "no effects"}, {"measurement": "infection-induced increase of TMPRSS2 expression", "setting": "[5]", "result": "inhibited"}, {"measurement": "HECT E3 ligase-increase induced by SARS-CoV-2 infection", "setting": "[5]; infected cells in vitro, data not shown", "result": "decreased"}]}
